Tests used:
Settings in all cases: 72 h
HepG2 [1] = assay: cell viability relative to DMSO; higher = less toxic
U2OS [2] = assay: as above
Vero E6 [3] = assay: as above
Caco-2 [4] = assay: as above
Calu-3 [5] = assay: as above
HepG2 [6] = assay: drug sensitivity score (DSS) for viability; higher = more toxic; extreme values may be limits of the assay
U2OS [7] = assay: as above
Vero E6 [8] = assay: as above
Caco-2 [9] = assay: as above
Calu-3 [10] = assay: as above
HepG2 [11] = assay: relative viability EC50 (midpoint between 100% and the lowest measured viability); higher = less toxic
U2OS [12] = assay: as above
Vero E6 [13] = assay: as above
Caco-2 [14] = assay: as above
Calu-3 [15] = assay: as above

| Structure (SMILES) | cell viability (HepG2 [1]; 1 nM) [%] | cell viability (HepG2 [1]; 10 nM) [%] | cell viability (HepG2 [1]; 100 nM) [%] | cell viability (HepG2 [1]; 1000 nM) [%] | cell viability (HepG2 [1]; 10000 nM) [%] | cell viability (U2OS [2]; 1 nM) [%] | cell viability (U2OS [2]; 10 nM) [%] | cell viability (U2OS [2]; 100 nM) [%] | cell viability (U2OS [2]; 1000 nM) [%] | cell viability (U2OS [2]; 10000 nM) [%] | cell viability (Vero E6 [3]; 1 nM) [%] | cell viability (Vero E6 [3]; 10 nM) [%] | cell viability (Vero E6 [3]; 100 nM) [%] | cell viability (Vero E6 [3]; 1000 nM) [%] | cell viability (Vero E6 [3]; 10000 nM) [%] | cell viability (Caco-2 [4]; 1 nM) [%] | cell viability (Caco-2 [4]; 10 nM) [%] | cell viability (Caco-2 [4]; 100 nM) [%] | cell viability (Caco-2 [4]; 1000 nM) [%] | cell viability (Caco-2 [4]; 10000 nM) [%] | cell viability (Calu-3 [5]; 1 nM) [%] | cell viability (Calu-3 [5]; 10 nM) [%] | cell viability (Calu-3 [5]; 100 nM) [%] | cell viability (Calu-3 [5]; 1000 nM) [%] | cell viability (Calu-3 [5]; 10000 nM) [%] | drug sensitivity score (HepG2 [6]) | drug sensitivity score (U2OS [7]) | drug sensitivity score (Vero E6 [8]) | drug sensitivity score (Caco-2 [9]) | drug sensitivity score (Calu-3 [10]) | relative viability EC50 (HepG2 [11]) [µM] | relative viability EC50 (U2OS [12]) [µM] | relative viability EC50 (Vero E6 [13]) [µM] | relative viability EC50 (Caco-2 [14]) [µM] | relative viability EC50 (Calu-3 [15]) [µM] |
| --- | --- | --- | --- | --- | --- | --- | --- | --- | --- | --- | --- | --- | --- | --- | --- | --- | --- | --- | --- | --- | --- | --- | --- | --- | --- | --- | --- | --- | --- | --- | --- | --- | --- | --- | --- |
| CC[N+](CC)(CC)CCC(O)(c1ccccc1)C1CCCCC1 (stereo not given) [tridihexethyl] | 99.8 | 108 | 92.5 | 89 | 112 | 101 | 94.5 | 97.1 | 106 | 103 | 96.4 | 93.6 | 97.2 | 97.6 | 103 | 100 | 92.8 | 102 | 92.7 | 110 | 104 | 104 | 96.9 | 103 | 106 | 0 | 0 | 0 | 0 | 0 | > 10 | > 10 | > 10 | > 10 | > 10 |
| c1cnc2cc3c(cc2n1)[C@@H]1CNC[C@H]3C1 [varenicline] | 97.2 | 88.7 | 90.4 | 95.4 | 101 | 97.5 | 93.5 | 103 | 96.3 | 104 | 91 | 99.8 | 91.4 | 98.7 | 104 | 95.4 | 91.9 | 103 | 93.1 | 93.7 | 105 | 99.1 | 108 | 98.1 | 105 | 0 | 0 | 0 | 0 | 0 | > 10 | > 10 | > 10 | > 10 | > 10 |
| COc1ccc(C(CN(C)C)C2(O)CCCCC2)cc1 (stereo not given) [venlafaxine] | 108 | 112 | 95.8 | 93.2 | 107 | 97.1 | 91.5 | 102 | 97.4 | 102 | 99.2 | 100 | 84.1 | 92.9 | 101 | 110 | 87.5 | 125 | 127 | 82 | 104 | 99.9 | 95.6 | 99.9 | 107 | 0 | 0 | 0 | 0.2 | 0 | > 10 | > 10 | > 10 | > 10 | > 10 |
| C=CC(N)CCC(=O)O (stereo not given) [vigabatrin] | 100 | 89.6 | 113 | 96.1 | 104 | 95.9 | 103 | 96.8 | 99.4 | 91.7 | 96.5 | 93.8 | 101 | 88.4 | 97.1 | 93.7 | 96.1 | 101 | 98.1 | 93.2 | 103 | 105 | 99 | 102 | 106 | 0 | 0 | 0 | 0 | 0 | > 10 | > 10 | > 10 | > 10 | > 10 |
| CC[C@@H]1C(=O)N(C)c2cnc(Nc3ccc(C(=O)N[C@H]4CC[C@H](N5CCN(CC6CC6)CC5)CC4)cc3OC)nc2N1C(C)C [volasertib] | 106 | 104 | 42.7 | 17.6 | 9.1 | 99 | 99.4 | 87.2 | 29.1 | 18.7 | 101 | 98 | 90.6 | 18.3 | 1.5 | 104 | 93.2 | 74 | 57.8 | 26.7 | 112 | 86.8 | 91.3 | 83.3 | 22.1 | 23.2 | 14.7 | 16.3 | 11.5 | 7 | 0.081 | 0.293 | 0.386 | 0.36 | 1.67 |
| COc1cc(C(=O)NS(=O)(=O)c2ccccc2C)ccc1Cc1cn(C)c2ccc(NC(=O)OC3CCCC3)cc12 [zafirlukast] | 104 | 101 | 109 | 94.6 | 96.6 | 92.7 | 98.4 | 103 | 105 | 100 | 96.2 | 92.5 | 91.2 | 94.2 | 94.6 | 92.3 | 104 | 105 | 97.8 | 99.2 | 96.9 | 101 | 97.2 | 100 | 110 | 0 | 0 | 0 | 0 | 0 | > 10 | > 10 | > 10 | > 10 | > 10 |
